Reference: patent US11981658B2, “Substituted aminopyridine compounds as EGFR inhibitors” (YUHAN CORPORATION, priority 2021, dated 2024)
Read-outs that look alike come from different tables or passages of the source.

Experiments:
[1] = biological target: EGFR L858R/C797S (Homo sapiens, UniProt P00533, C797S/L858R); experiment: Biochemical EGFR kinase inhibition assay (Lance Ultra TR-FRET), double mutant L858R/C797S
How it was run: (§1)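 Kinase activity is measured by TR-FRET phosphopeptide detection. Compounds span 0.003 μM to 10 μM; the 1 h reaction at room temperature is quenched with EDTA, then labelled antibody (2 nM) is incubated 60 min before reading.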

[2] = biological target: EGFR L858R/T790M/C797S (Homo sapiens, UniProt P00533, C797S/L858R/T790M); experiment: Biochemical EGFR kinase inhibition assay (Lance Ultra TR-FRET), triple mutant L858R/T790M/C797S
How it was run: as §1

[3] = biological target: EGFR wildtype (WT) (Homo sapiens, UniProt P00533); experiment: Biochemical EGFR kinase inhibition assay (Lance Ultra TR-FRET), wildtype
How it was run: as §1

[4] = biological target: EGFR Del19/C797S (Homo sapiens, UniProt P00533, C797S/DEL746-750); experiment: Biochemical EGFR kinase inhibition assay (Lance Ultra TR-FRET), double mutant del19/C797S
How it was run: as §1

[5] = biological target: EGFR Del19/T790M/C797S (Homo sapiens, UniProt P00533, C797S/DEL746-750/T790M); experiment: Biochemical EGFR kinase inhibition assay (Lance Ultra TR-FRET), triple mutant del19/T790M/C797S
How it was run: as §1

[6] = IC50 L858R/C797S (nM), 100 μM ATP
[7] = Km ATP, read-out: IC50 L858R/C797S (nM), Km ATP
[8] = IC50 L858R/T790M/C797S (nM), 100 μM ATP
[9] = Km ATP, read-out: IC50 L858R/T790M/C797S (nM), Km ATP
[10] = Km ATP, read-out: IC50 WT (nM), Km ATP
[11] = IC50 Del19/C797S (nM), 100 μM ATP
[12] = Km ATP, read-out: IC50 Del19/C797S (nM), Km ATP
[13] = IC50 Del19/T790M/C797S (nM), 100 μM ATP
[14] = Km ATP, read-out: IC50 Del19/T790M/C797S (nM), Km ATP

EGFR Del19/C797S, sequence (P00533 with tags, fused parts or gaps DEL746-750/C797S): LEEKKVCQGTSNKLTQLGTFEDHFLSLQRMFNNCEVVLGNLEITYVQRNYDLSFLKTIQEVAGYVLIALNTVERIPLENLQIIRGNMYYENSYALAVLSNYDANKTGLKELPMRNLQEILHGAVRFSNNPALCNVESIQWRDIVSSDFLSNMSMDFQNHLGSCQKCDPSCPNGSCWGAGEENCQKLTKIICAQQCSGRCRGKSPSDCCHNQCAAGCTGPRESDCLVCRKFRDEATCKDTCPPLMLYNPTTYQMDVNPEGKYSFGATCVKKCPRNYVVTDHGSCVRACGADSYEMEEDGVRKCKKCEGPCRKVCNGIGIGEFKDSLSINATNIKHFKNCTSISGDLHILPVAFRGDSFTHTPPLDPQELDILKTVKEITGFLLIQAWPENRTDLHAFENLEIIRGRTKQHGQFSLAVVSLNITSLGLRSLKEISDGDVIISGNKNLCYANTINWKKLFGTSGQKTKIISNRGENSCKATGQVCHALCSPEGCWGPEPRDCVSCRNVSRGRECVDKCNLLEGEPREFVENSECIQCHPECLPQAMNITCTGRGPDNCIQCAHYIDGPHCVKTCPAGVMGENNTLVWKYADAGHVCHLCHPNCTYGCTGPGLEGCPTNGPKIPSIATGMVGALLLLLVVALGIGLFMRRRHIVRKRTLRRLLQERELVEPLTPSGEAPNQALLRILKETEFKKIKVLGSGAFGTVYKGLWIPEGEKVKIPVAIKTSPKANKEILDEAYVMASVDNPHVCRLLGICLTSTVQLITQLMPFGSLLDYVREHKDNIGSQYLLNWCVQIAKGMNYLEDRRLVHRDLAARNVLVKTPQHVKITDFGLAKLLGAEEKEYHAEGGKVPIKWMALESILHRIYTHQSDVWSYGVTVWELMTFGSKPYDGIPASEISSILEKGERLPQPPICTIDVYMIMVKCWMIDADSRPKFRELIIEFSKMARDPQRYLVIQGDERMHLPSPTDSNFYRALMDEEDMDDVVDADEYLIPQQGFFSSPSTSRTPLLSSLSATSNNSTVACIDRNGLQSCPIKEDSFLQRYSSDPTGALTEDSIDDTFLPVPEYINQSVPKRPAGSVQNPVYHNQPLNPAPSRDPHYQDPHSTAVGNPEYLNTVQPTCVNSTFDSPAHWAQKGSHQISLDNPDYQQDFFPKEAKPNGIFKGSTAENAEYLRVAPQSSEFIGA
EGFR L858R/C797S, sequence (P00533 25-1210 C797S/L858R): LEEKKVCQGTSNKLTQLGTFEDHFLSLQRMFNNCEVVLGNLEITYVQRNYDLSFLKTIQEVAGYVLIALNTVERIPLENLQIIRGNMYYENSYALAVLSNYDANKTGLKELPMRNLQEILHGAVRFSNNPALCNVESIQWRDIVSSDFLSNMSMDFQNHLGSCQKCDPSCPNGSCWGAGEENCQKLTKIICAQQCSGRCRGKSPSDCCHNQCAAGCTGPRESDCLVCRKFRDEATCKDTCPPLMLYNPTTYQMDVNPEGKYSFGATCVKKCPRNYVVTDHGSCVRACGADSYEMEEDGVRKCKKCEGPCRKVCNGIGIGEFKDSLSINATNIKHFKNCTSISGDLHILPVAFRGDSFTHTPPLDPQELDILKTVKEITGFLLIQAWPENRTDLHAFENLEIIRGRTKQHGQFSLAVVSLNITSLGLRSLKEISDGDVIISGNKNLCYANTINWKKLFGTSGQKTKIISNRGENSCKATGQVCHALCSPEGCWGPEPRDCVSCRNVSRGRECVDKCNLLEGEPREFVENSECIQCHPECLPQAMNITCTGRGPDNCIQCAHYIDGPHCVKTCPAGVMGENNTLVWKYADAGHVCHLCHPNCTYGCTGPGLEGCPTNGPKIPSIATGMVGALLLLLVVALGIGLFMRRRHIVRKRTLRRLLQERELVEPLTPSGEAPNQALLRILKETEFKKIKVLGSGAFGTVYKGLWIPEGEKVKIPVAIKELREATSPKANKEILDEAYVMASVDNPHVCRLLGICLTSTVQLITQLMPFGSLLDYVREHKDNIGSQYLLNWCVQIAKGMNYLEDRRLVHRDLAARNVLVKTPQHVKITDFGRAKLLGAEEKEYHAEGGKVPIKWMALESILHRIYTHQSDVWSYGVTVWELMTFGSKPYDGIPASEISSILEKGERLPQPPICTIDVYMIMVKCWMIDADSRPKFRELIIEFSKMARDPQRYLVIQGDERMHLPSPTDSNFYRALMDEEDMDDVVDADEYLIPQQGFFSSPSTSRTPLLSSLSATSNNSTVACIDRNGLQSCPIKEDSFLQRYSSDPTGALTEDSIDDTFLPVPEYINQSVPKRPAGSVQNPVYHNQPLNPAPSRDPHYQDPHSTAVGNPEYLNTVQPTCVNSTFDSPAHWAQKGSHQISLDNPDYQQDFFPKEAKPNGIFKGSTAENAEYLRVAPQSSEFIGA
EGFR Del19/T790M/C797S, sequence (P00533 with tags, fused parts or gaps DEL746-750/T790M/C797S): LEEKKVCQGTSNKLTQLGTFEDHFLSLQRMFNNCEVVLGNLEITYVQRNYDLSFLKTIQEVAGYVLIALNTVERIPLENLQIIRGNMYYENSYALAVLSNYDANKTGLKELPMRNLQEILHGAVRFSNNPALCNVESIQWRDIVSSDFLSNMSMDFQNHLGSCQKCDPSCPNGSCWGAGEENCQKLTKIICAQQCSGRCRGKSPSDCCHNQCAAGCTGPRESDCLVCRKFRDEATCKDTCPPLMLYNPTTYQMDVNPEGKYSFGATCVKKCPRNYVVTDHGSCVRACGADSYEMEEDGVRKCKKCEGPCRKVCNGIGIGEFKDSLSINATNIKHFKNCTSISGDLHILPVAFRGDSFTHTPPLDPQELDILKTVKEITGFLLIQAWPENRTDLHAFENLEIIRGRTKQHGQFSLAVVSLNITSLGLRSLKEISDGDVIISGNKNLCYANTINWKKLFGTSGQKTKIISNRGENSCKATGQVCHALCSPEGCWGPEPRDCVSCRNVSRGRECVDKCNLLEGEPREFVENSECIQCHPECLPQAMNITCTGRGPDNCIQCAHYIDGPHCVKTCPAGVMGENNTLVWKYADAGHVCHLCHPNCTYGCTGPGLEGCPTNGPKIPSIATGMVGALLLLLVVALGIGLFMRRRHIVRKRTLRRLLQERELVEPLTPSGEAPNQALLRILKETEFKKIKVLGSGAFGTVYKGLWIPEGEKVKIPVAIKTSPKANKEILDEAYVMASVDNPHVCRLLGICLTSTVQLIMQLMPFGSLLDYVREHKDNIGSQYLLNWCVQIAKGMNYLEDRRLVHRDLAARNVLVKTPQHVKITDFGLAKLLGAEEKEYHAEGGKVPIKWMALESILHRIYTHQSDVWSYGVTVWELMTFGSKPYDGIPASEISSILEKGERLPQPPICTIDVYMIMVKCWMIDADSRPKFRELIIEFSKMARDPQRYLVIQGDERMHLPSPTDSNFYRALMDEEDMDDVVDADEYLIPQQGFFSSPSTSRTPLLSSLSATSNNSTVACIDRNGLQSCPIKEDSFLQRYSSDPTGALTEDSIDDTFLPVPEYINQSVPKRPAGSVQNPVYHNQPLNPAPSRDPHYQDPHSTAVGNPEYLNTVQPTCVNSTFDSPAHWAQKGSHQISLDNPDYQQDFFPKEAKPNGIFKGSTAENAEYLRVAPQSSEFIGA
EGFR L858R/T790M/C797S, sequence (P00533 25-1210 T790M/C797S/L858R): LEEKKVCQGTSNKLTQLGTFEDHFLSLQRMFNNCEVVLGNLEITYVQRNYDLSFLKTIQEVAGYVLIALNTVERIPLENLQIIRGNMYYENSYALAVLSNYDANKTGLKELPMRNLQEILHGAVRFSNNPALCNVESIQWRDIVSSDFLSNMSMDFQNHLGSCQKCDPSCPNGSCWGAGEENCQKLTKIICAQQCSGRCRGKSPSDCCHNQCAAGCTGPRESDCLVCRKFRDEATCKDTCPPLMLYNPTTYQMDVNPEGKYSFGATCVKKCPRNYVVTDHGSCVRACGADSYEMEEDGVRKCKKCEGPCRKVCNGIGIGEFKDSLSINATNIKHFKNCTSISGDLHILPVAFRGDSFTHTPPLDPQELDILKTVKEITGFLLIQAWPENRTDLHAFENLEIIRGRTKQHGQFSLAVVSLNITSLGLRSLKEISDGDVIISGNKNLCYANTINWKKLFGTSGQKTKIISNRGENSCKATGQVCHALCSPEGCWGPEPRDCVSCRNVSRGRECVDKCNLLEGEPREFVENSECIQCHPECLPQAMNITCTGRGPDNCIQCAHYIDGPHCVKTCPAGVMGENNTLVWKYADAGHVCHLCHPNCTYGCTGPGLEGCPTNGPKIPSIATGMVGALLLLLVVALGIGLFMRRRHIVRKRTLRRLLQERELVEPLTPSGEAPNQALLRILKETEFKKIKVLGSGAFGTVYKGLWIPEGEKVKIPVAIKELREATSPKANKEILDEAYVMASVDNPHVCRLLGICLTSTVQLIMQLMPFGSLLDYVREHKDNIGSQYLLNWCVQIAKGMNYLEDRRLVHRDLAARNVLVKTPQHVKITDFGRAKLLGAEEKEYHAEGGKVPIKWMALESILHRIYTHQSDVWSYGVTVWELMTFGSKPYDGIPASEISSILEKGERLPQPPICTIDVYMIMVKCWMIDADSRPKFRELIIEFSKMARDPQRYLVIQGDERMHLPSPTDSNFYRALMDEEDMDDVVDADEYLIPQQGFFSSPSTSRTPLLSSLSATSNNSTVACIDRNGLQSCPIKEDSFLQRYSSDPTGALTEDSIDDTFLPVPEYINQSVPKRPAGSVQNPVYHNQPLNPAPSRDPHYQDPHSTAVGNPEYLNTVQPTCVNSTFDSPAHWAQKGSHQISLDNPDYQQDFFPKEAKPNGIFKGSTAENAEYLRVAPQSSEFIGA

| Compound | IC50 [1, 6] | IC50 [1, 7] | IC50 [2, 8] | IC50 [2, 9] | IC50 ([3]; IC50 WT (nM), 100 μM ATP) | IC50 [3, 10] | IC50 [4, 11] | IC50 [4, 12] | IC50 [5, 13] | IC50 [5, 14] |
| --- | --- | --- | --- | --- | --- | --- | --- | --- | --- | --- |
| O=S(=O)(C1CC1)n1cc(-c2nccc(Nc3cc(NC4CCC(CO)CC4)c(C#CC4CCOC4C(F)(F)F)cn3)n2)cn1 [Example 416, ((1s,4s)-4-((2-((2-(1-(Cyclopropylsulfonyl)-1H-pyrazol-4-yl)pyrimidin-4-yl)amino)-5-(((2R)-2-(trifluoromethyl)tetrahydrofuran-3-yl)ethynyl)pyridin-4-yl)amino)cyclohexyl)methanol] | 165 nM | 33.6 nM | 2.8 nM | 0.9 nM | > 10000 nM | 84.5 nM | 8.2 nM | 7.2 nM | 2.7 nM | 2.6 nM |
| CC1(O)CCN(c2cc(Nc3ccnc(-c4cnn(S(=O)(=O)C5CC5)c4)n3)ncc2C#CC2CCO[C@H]2C(F)(F)F)CC1 (stereo partly drawn) [Example 417, 1-(2-((2-(1-(Cyclopropylsulfonyl)-1H-pyrazol-4-yl)pyrimidin-4-yl)amino)-5-(((2R)-2-(trifluoromethyl)tetrahydrofuran-3-yl)ethynyl)pyridin-4-yl)-4-methylpiperidin-4-ol] | 157 nM | 30.7 nM | 2.6 nM | 0.8 nM | > 10000 nM | 96.1 nM | 7.9 nM | 7 nM | 1.6 nM | 1.5 nM |
| CN(C)CC1(C)CCN(c2cc(Nc3ccnc(-c4cnn(S(=O)(=O)C5CC5)c4)n3)ncc2C#CC2CCO[C@H]2C(F)(F)F)CC1 (stereo partly drawn) [Example 418, 2-(1-(Cyclopropylsulfonyl)-1H-pyrazol-4-yl)-N-(4-(4-((dimethylamino)methyl)-4-methylpiperidin-1-yl)-5-(((2R)-2-(trifluoromethyl)tetrahydrofuran-3-yl)ethynyl)pyridin-2-yl)pyrimidin-4-amine] | 235 nM |  | 2.3 nM |  | > 10000 nM |  | 10.1 nM |  | 1.1 nM |  |
| CN(C)CCC1CCN(c2cc(Nc3ccnc(-c4cnn(S(=O)(=O)C5CC5)c4)n3)ncc2C#CC2CCO[C@H]2C(F)(F)F)CC1 (stereo partly drawn) [Example 419, 2-(1-(Cyclopropylsulfonyl)-1H-pyrazol-4-yl)-N-(4-(4-(2-(dimethylamino)ethyl)piperidin-1-yl)-5-(((2R)-2-(trifluoromethyl)tetrahydrofuran-3-yl)ethynyl)pyridin-2-yl)pyrimidin-4-amine] | 97.5 nM | 7.1 nM | 1.5 nM | 0.4 nM | > 10000 nM | 31 nM | 4.8 nM | 3.9 nM | 1 nM | 1.1 nM |
| O=S(=O)(C1CC1)n1cc(-c2nccc(Nc3cc(NC4CCC(O)CC4)c(C#CC4CCOC4C(F)(F)F)cn3)n2)cn1 [Example 420, (1s,4s)-4-((2-((2-(1-(Cyclopropylsulfonyl)-1H-pyrazol-4-yl)pyrimidin-4-yl)amino)-5-(((2R)-2-(trifluoromethyl)tetrahydrofuran-3-yl)ethynyl)pyridin-4-yl)amino)cyclohexan-1-ol] | 119 nM | 12.6 nM | 2.3 nM | 0.5 nM | > 10000 nM | 52.7 nM | 6.9 nM | 6.4 nM | 1.3 nM | 1.6 nM |
| CC1(CO)CCN(c2cc(Nc3ccnc(-c4cnn(S(=O)(=O)C5CC5)c4)n3)ncc2C#CC2CCO[C@H]2C(F)(F)F)CC1 (stereo partly drawn) [Example 421, (1-(2-((2-(1-(Cyclopropylsulfonyl)-1H-pyrazol-4-yl)pyrimidin-4-yl)amino)-5-(((2R)-2-(trifluoromethyl)tetrahydrofuran-3-yl)ethynyl)pyridin-4-yl)-4-methylpiperidin-4-yl)methanol] | 117 nM | 17.2 nM | 2.3 nM | 0.8 nM | > 10000 nM | 35.1 nM | 5.8 nM | 4 nM | 1.8 nM | 1.5 nM |
| O=S(=O)(C1CC1)n1cc(-c2nccc(Nc3cc(N[C@H]4CC[C@@H](CO)CC4)c(C#CC4C[C@@H]5CC[C@@H]4O5)cn3)n2)cn1 (some centres unmarked) [Example 422, ((1s,4s)-4-((5-((7-Oxabicyclo[2.2.1]heptan-2-yl)ethynyl)-2-((2-(1-(cyclopropylsulfonyl)-1H-pyrazol-4-yl)pyrimidin-4-yl)amino)pyridin-4-yl)amino)cyclohexyl)methanol] | 59.4 nM | 3.2 nM | 0.5 nM | 0.4 nM | 6510 nM | 10.5 nM | 2.6 nM | 2.6 nM | 0.4 nM | 0.9 nM |
| O=S(=O)(C1CC1)n1cc(-c2nccc(Nc3cc(NC[C@H]4CC[C@H](O)CC4)c(C#CC4CC5CCC4O5)cn3)n2)cn1 (some centres unmarked) [Example 423, (1r,4r)-4-(((5-((7-Oxabicyclo[2.2.1]heptan-2-yl)ethynyl)-2-((2-(1-(cyclopropylsulfonyl)-1H-pyrazol-4-yl)pyrimidin-4-yl)amino)pyridin-4-yl)amino)methyl)cyclohexan-1-ol] | 1770 nM |  | 3.2 nM |  | > 10000 nM |  | 105 nM |  | 1.2 nM |  |
| CC1(O)CCN(c2cc(Nc3ccnc(-c4cnn(S(=O)(=O)C5CC5)c4)n3)ncc2C#CC2CC3CCC2O3)CC1 (centres unmarked) [Example 424, 1-(5-((7-Oxabicyclo[2.2.1]heptan-2-yl)ethynyl)-2-((2-(1-(cyclopropylsulfonyl)-1H-pyrazol-4-yl)pyrimidin-4-yl)amino)pyridin-4-yl)-4-methylpiperidin-4-o 1] | 47.7 nM | 1.9 nM | 0.3 nM | 0.2 nM | 5450 nM | 8.8 nM | 2.4 nM | 2 nM | 0.2 nM | 0.3 nM |
| O=S(=O)(C1CC1)n1cc(-c2nccc(Nc3cc(NC[C@H]4CC[C@H](CO)CC4)c(C#CC4CC5CCC4O5)cn3)n2)cn1 (some centres unmarked) [Example 425, ((1r,4r)-4-(((5-((7-Oxabicyclo[2.2.1]heptan-2-yl)ethynyl)-2-((2-(1-(cyclopropylsulfonyl)-1H-pyrazol-4-yl)pyrimidin-4-yl)amino)pyridin-4-yl)amino)methyl)cyclohexyl)methanol] | 1820 nM |  | 5.4 nM |  | > 10000 nM |  | 120 nM |  | 2.5 nM |  |
| O=S(=O)(C1CC1)n1cc(-c2nccc(Nc3cc(N[C@H]4CC[C@@H](O)CC4)c(C#CC4C[C@@H]5CC[C@@H]4O5)cn3)n2)cn1 (some centres unmarked) [Example 427, (1s,4s)-4-((5-((7-Oxabicyclo[2.2.1]heptan-2-yl)ethynyl)-2-((2-(1-(cyclopropylsulfonyl)-1H-pyrazol-4-yl)pyrimidin-4-yl)amino)pyridin-4-yl)amino)cyclohexan-1-ol] | 80.1 nM | 3.2 nM | 0.3 nM | 0.2 nM | > 10000 nM | 12 nM | 2.4 nM | 2.7 nM | 0.2 nM | 0.3 nM |
| O=S1(=O)CCC(C#Cc2cnc(Nc3ccnc(-c4cnn(S(=O)(=O)C5CC5)c4)n3)cc2NC2CCC(CO)CC2)C1 (centres unmarked) [Example 428, 3-((6-((2-(1-(Cyclopropylsulfonyl)-1H-pyrazol-4-yl)pyrimidin-4-yl)amino)-4-(((1s,4s)-4-(hydroxymethyl)cyclohexyl)amino)pyridin-3-yl)ethynyl)tetrahydrothiophene 1,1-dioxide] | 28.5 nM | 4.9 nM | 0.2 nM | 0.1 nM | > 10000 nM | 18.6 nM | 1.9 nM | 4 nM | 0.5 nM | 0.1 nM |
| CC1(O)CCN(c2cc(Nc3ccnc(-c4cnn(S(=O)(=O)C5CC5)c4)n3)ncc2C#CC2CCS(=O)(=O)C2)CC1 (centres unmarked) [Example 429, 3-((6-((2-(1-(Cyclopropylsulfonyl)-1H-pyrazol-4-yl)pyrimidin-4-yl)amino)-4-(4-hydroxy-4-methylpiperidin-1-yl)pyridin-3-yl)ethynyl)tetrahydrothiophene 1,1-dioxide] | 39.7 nM | 4.8 nM | 0.3 nM | 0.2 nM | 6020 nM | 38.9 nM | 3.4 nM | 4.9 nM | 0.5 nM | 0.2 nM |
| CC1OCCC1C#Cc1cnc(Nc2ccnc(-c3cnn(S(=O)(=O)C4CC4)c3)n2)cc1NC1CCC(CO)CC1 (centres unmarked) [Example 430, ((1s,4s)-4-((2-((2-(1-(Cyclopropylsulfonyl)-1H-pyrazol-4-yl)pyrimidin-4-yl)amino)-5-((2-methyltetrahydrofuran-3-yl)ethynyl)pyridin-4-yl)amino)cyclohexyl)methanol] | 107 nM | 4.3 nM | 0.9 nM | 0.3 nM | 7480 nM | 6.9 nM | 3.8 nM | 1.3 nM | 1 nM | 0.6 nM |
